Source: patent US4371544A, “Pharmaceutical composition containing 1,1,3,5-substituted biuret compound” (Taiho Pharmaceutical Company Limited, priority 1979, dated 1983)
Like-named read-outs stand apart in the source and are kept apart here.

Key:
[1] = Acute toxicity (oral, mice, 7 days observation); format: in vivo; conditions: mouse, in vivo; oral, male ddy mice, 7 days observation; Δ mark; read-out: 50% lethal dose, LD50
In short: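 Overnight-fasted male ddy mice (20-25 g) received compound orally as a suspension in 0.25% carboxymethylcellulose, observed 7 days. Lethal dose (mg/kg) taken from deaths per mice tested; LD50 given where marked.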

[2] = system: Wistar strain of male rats; experiment: Anti-pyretic activity (dry-yeast-induced fever); format: in vivo, rat (Wistar); conditions: oral (dose not given), up to 4 hours after administration
In short: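 Male Wistar rats (150–180 g), fasted overnight, given 10% dry-yeast suspension subcutaneously (1 ml/100 g). Compound dosed orally as 0.25% CMC suspension 5 h later; body temperature followed, febrile index integrated to 4 h post-dose and expressed as % inhibition.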

ddy strain of male mice [3] = experiment: Analgesic activity, acetic acid-induced stretching method; format: in vivo, mouse (ddy); conditions: Mus musculus; for inhibition in vivo at 100 mg/kg: po, read-out: Analgesic activity, acetic acid-induced stretching method, inhibitory ratio
In short: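 Fasted male mice (20-25 g) received test compound orally, usually 100 mg/kg, as a 0.25% carboxymethylcellulose suspension, then 0.2 ml 0.7% acetic acid i.p. 1 hour later. Stretching was scored and activity given as % inhibition; some values are ED50 (mg/kg).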

[4] = system: Wistar strain of male rats; experiment: Anti-inflammatory activity (acute carrageenin-induced inflammatory test, hindpaw); format: in vivo, rat (Wistar); conditions: Rattus norvegicus, read-out: Anti-inflammatory activity, inflammation inhibitory ratio
Procedure: Next, several tests for determining the pharmacological properties, in that acute toxicity, anti-pyretic activity, analgesic activity and anti-inflammatory activity of the present 1,1,3,5-substituted biuret compounds of the formula (1) were conducted and the test results are shown in Table (2). In the tests, each compounds to be tested was used as a suspension in 0.25% carboxymethylcellulose solution. Methods for testing are explained as follows:
According to the method of acute carrageenin-induced inflammatory test [Folia Pharmacologia Japonica, Vol. 56, pp. 575 (1960)], the Wistar strain of male rats (body weight, 150-180 g) were used as test animals. The rats were fasted overnight, 100 mg/kg body weight of the test compound was administered orally, then 1 hour after the administration, 0.1 ml of 1% carrageenin solution, as the inflammation inducing agent, was injected subcutaneously to the hindpaw of the rat and the volume of the hindpaw was measured at time sequences, Anti-inflammatory activity of the test compound was calculated as inflammation inhibitory ratio (%) at 3 hours after the injection of inflammation inducing agent.

ddy strain of male mice [5] = experiment: Analgesic activity, Haffner method (morphine threshold dose, clamp); format: in vivo, mouse (ddy); conditions: Mus musculus; for inhibition in vivo at 100 mg/kg: 100 mg/kg oral, 45 minutes before morphine hydrochloride, read-out: Analgesic activity, Haffner method, inhibitory ratio
In short: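 Fasted male ddy mice weighing 20-25 g were given the test compound orally as a suspension in 0.25% carboxymethylcellulose. After 45 minutes, a threshold dose (1.5-2.5 mg/kg body weight) of morphine hydrochloride was injected subcutaneously, and clamp-induced pain reactions were watched for 1 hour. Analgesic activity was expressed as inhibitory ratio (%) or as ED50.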

[6] = oral, Δ mark, range in parentheses
[7] = 100 mg/kg oral, 3 hours after carrageenin

Compound | LD50 at 168 h [1] | Anti-pyretic activity, inhibitory ratio (febril index) [2] | ED50 (ddy strain of male mice [3]; [6]) | inhibition in vivo at 100 mg/kg [4, 7] | ED50 (ddy strain of male mice [5]; [6]) | inhibition in vivo at 100 mg/kg (ddy strain of male mice [3]) | inhibition in vivo at 100 mg/kg ([4]; po, 3 h) | inhibition in vivo at 100 mg/kg (ddy strain of male mice [5]) | inhibition in vivo at 100 mg/kg ([4]; po, 2 h)
CNC(=O)N(C)C(=O)N(C)c1ccccc1 [Compound No. 53, 1,3,5-Trimethyl-1-phenylbiuret] | 1350 mg/kg | 108% | 68 mg/kg | 76% | 135 mg/kg |  |  |  | 
CCN(C(=O)N(C)C(=O)NC)c1ccccc1 [Compound No. 58, 1-ethyl-3,5-dimethyl-1-phenylbiuret] | 1000 mg/kg | 137% |  |  |  | 75% | 60% | 62.5% | 
CCN(C(=O)N(C)C(=O)NC)c1ccc(OC)cc1 [Compound No. 61, 1-Ethyl-1-(4-methoxyphenyl)-3,5-dimethylbiuret] | 1250 mg/kg | 35% |  | 52% |  | 75% |  | 25% | 
CCNC(=O)NC(=O)N(C)c1ccccc1 [compound 50, 1-Methyl-1-phenyl-5-ethylbiuret] | 1960 mg/kg | 90% |  | 38% |  | 50% |  | 37.5% | 
CCNC(=O)N(C)C(=O)N(C)c1ccccc1 [compound 54, 1,3-Dimethyl-1-phenyl-5-ethylbiuret] | 1350 mg/kg | 58% |  | 54% |  | 37.5% |  | 75% | 
CC(C)NC(=O)N(C)C(=O)N(C)c1ccccc1 [compound 56, 1,3-Dimethyl-1-phenyl-5-isopropylbiuret] | 1320 mg/kg | 65% |  |  |  | 25% | 47% | 12.5% | 
CCN(C(=O)N(C)C(=O)NC)c1ccccc1Cl [compound 59, 1-Ethyl-1-(2-chlorophenyl)-3,5-dimethylbiuret] | 810 mg/kg | 64% |  |  |  | 37.5% |  | 12.5% | 51%
